In PubChem BioAssay (NCI):
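Values below derive from 48-hour exposures of cells grown in 96-well plates, with endpoints linearly interpolated between the two concentrations bracketing the appropriate inhibition level. TGI denotes the concentration required for complete inhibition of growth.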

Columns and labels:
Assay in all cases: inhibition of tumour cell growth, NCI panel, 48 h
OVCAR-4 ovarian = tested on: OVCAR-4 ovarian
HOP-62 NSCLC = tested on: HOP-62 NSCLC
MALME-3M melanoma = tested on: MALME-3M melanoma
OVCAR-3 ovarian = tested on: OVCAR-3 ovarian
UO-31 renal = tested on: UO-31 renal
SK-OV-3 ovarian = tested on: SK-OV-3 ovarian
MDA-MB-231 breast = tested on: MDA-MB-231 breast
TK-10 renal = tested on: TK-10 renal
SF-268 CNS = tested on: SF-268 CNS
COLO 205 colon = tested on: COLO 205 colon
T-47D breast = tested on: T-47D breast

SMILES | TGI (OVCAR-4 ovarian) [µM] | TGI (HOP-62 NSCLC) [µM] | TGI (MALME-3M melanoma) [µM] | TGI (OVCAR-3 ovarian) [µM] | TGI (UO-31 renal) [µM] | TGI (SK-OV-3 ovarian) [µM] | TGI (MDA-MB-231 breast) [µM] | TGI (TK-10 renal) [µM] | TGI (SF-268 CNS) [µM] | TGI (COLO 205 colon) [µM] | TGI (T-47D breast) [µM]
O=C(NNC(=O)c1ccco1)c1ccco1 | > 100 | > 100 | > 100 | > 100 | > 100 | > 100 | > 100 | > 100 | > 100 | > 100 | > 100
C=C1OC2OC(C)C(NC(=O)OCC(Cl)(Cl)Cl)C(OC(C)=O)C2O1 (stereo not drawn) | > 100 | > 100 | > 100 | > 100 | > 100 | > 100 | > 100 | > 100 | > 100 | > 100 | > 100
CCOC(=O)C1=C(O)CC(=O)N=C1N1CCCC1 | > 100 | > 100 | > 100 | > 100 | > 100 | > 100 | > 100 | > 100 | > 100 | > 100 | > 100
CN(C(=O)Cc1ccccc1)n1cn[n+](CC(=O)OC(C)(C)C)c1 | > 10 | > 10 | > 10 | > 10 | > 10 | > 10 | > 10 | > 10 | > 10 | > 10 | > 10
COc1ccc(OC)c2c(C(C)=O)cccc12 | – | > 100 | > 100 | > 100 | > 100 | > 100 | > 100 | > 100 | > 100 | > 100 | > 100
Cc1ccc(/C=c2\cc3oc(=O)c4cccc(c4-3)c2=O)cc1 | > 100 | > 100 | > 100 | > 100 | > 100 | > 100 | > 100 | > 100 | > 100 | > 100 | > 100
CN(C)C(=O)C(F)(F)C(c1ccccc1Br)C1C(=O)N(C)C(=O)N(C)C1=O (stereo not drawn) | > 100 | > 100 | > 100 | > 100 | > 100 | > 100 | > 100 | > 100 | > 100 | > 100 | > 100
Cc1nn2c(=O)c([N+](=O)[O-])c(/C=C/c3ccc(F)cc3)nc2s1 | 19.5 | 22.9 | 16.7 | 16.6 | 16.2 | > 31.6 | 26.8 | 20.7 | 26.2 | 16.7 | 19.3
O=C(O)CN1C(=O)c2ccc(NC(=O)C(=O)O)cc2S1(=O)=O | > 100 | > 100 | > 100 | – | > 100 | > 100 | > 100 | > 100 | > 100 | > 100 | > 100
Nc1nc(Sc2ccc([N+](=O)[O-])c3nonc23)c2[nH]cnc2n1 | 15.9 | 18.1 | 5.03 | 13.8 | 2.07 | 9.95 | 13.7 | 6.4 | 18 | 3.11 | 4.43
O=C(/C=C/c1ccc(OCc2ccccc2)cc1)NCc1ccc(C(=O)NCCc2ccccc2)cc1 | > 100 | > 100 | > 100 | > 100 | > 100 | > 100 | > 100 | > 100 | > 100 | > 100 | > 100
O=c1cc(NNc2cccc3ccccc23)[nH]c(=O)[nH]1 | 31.2 | 30.9 | 31.8 | 27.3 | 29.8 | 88.6 | 26.2 | 33.8 | 31 | 31.3 | 29.6
CCCOC(=O)c1cc(O)c(O)c(O)c1 | > 100 | > 100 | > 100 | 79.8 | > 100 | > 100 | > 100 | > 100 | > 100 | > 100 | > 100
COC(=O)[C@@H]1c2c(oc3cc(CO)cc(O)c3c2=O)C=C[C@H]1O | 12 | 40 | 4.91 | 20.7 | 14.2 | 35.4 | 27.5 | 6.8 | 21.7 | 29 | 9.4
Clc1ccc(-c2cn3c(nc4ccccc43)c(-c3ccccc3)n2)cc1 | 25.2 | 24.6 | > 63.7 | > 82.4 | > 60 | 26.5 | > 100 | 62.2 | > 100 | > 100 | > 75.5
CO[C@@]12C[C@H](CNC(=O)c3ccc[nH]3)O[C@@H]1NC(=O)N2 | > 100 | > 100 | > 100 | > 100 | > 100 | > 100 | > 100 | > 100 | > 100 | > 100 | > 100
O=c1c(-c2nc3ccccc3c3ccccc3c2=O)nc2ccccc2c2ccccc12 | > 100 | > 100 | > 100 | 97.3 | > 100 | > 100 | > 100 | > 100 | > 100 | > 100 | > 100
CC(=O)OCC1OC(OCCCOP(=O)(OCCC#N)OCC2OC(n3cnc4c(N)ncnc43)C(OC(=O)c3ccccc3)C2OC(=O)c2ccccc2)C(OC(C)=O)C(OC(C)=O)C1OC(C)=O (stereo not drawn) | > 100 | > 100 | 5.53 | > 100 | > 100 | > 100 | > 100 | > 100 | > 100 | > 100 | > 100
OCCc1ccsc1-c1sc(-c2cc(CCO)c(-c3sc(-c4cc(CCO)c(-c5sccc5CCO)s4)cc3CCO)s2)cc1CCO | 2.52 | 2.76 | 2.36 | 2.72 | 2.7 | 3.11 | 11.9 | 3.15 | 2.14 | 5.03 | 3.56
Cc1ccc(S(=O)(=O)N/N=C2\C=CC3(CC2)C(=O)N(I)c2ccccc23)cc1 (stereo not drawn) | > 100 | > 100 | 6.82 | > 100 | > 100 | > 100 | > 100 | > 100 | > 100 | > 100 | > 100
Cc1nc2ccc(NCCN(C)C)c3c(=O)c4ccccc4n1c23 | 6.82 | 19.1 | 18.5 | 35.6 | 11.1 | 36.7 | 5.8 | 38.5 | 20.2 | 11.8 | 39.7
CN(C)S(=O)(=O)c1ccc2[nH]c(O)c(C3=Nc4ccccc4C3=O)c2c1 | > 100 | 47.2 | > 100 | > 100 | > 100 | 28.5 | 52.3 | 40 | 38.7 | > 100 | > 100
COc1ccc(-c2nc3ccccc3c(=O)[nH]2)cc1 | 95.1 | > 100 | > 100 | > 100 | > 100 | > 100 | > 100 | > 100 | > 100 | > 100 | > 100
O=C1Cc2cc3ccccc3nc2-c2ccccc2N1 | > 100 | > 100 | > 100 | > 100 | > 100 | > 100 | > 100 | > 100 | > 100 | > 100 | > 100
NC(Cc1ccccc1)C(=O)OCN1C(=O)C2C3C=CC(C2C1=O)C1C(=O)N(COC(=O)C(N)Cc2ccccc2)C(=O)C31 (stereo not drawn) | – | > 100 | > 100 | > 100 | > 100 | – | > 100 | > 100 | > 100 | > 100 | > 100
COC(=O)CN1CCN(c2cccc3c2CCCC3)CC1 | > 100 | > 100 | > 100 | 72.4 | > 100 | – | > 100 | > 100 | – | > 100 | > 100
CC1(C)N=C(C(N)=O)c2[nH]cnc2N1 | > 100 | > 100 | > 100 | > 100 | – | > 100 | > 100 | > 100 | > 100 | > 100 | > 100
CC(=O)Oc1ccc2cc(Oc3cc(Cl)c(Cl)cc3Cl)c(=O)oc2c1 | > 100 | 36.2 | 31.3 | 31.6 | 25.9 | – | 33.7 | 74.5 | > 100 | – | > 100
CN(C)C(=O)C(F)(F)C(c1ccccc1)C1C(=O)N(C)C(=O)N(C)C1=O (stereo not drawn) | > 100 | > 100 | – | > 100 | > 100 | > 100 | > 100 | > 100 | > 100 | > 100 | > 100
O=C(C[N+]12CN3CN(CN(C3)C1)C2)c1ccc(-c2ccccc2)cc1 | > 100 | 55.4 | 39.3 | 78.6 | 61.8 | – | 34.3 | 47.3 | 39.4 | – | > 100
